Test results: patent US20260256792A1, “TREATMENT OF CHRONIC SPONTANEOUS URTICARIA BY ADMINISTERING (R)-2-[3-[4-AMINO-3-(2-FLUORO-4-PHENOXY-PHENYL)PYRAZOLO[3,4-D]PYRIMIDIN-1-YL]PIPERIDINE-1-CARBONYL]-4-METHYL-4-[4-(OXETAN-3-YL)PIPERAZIN-1-YL]PENT-2-ENENITRILE” (priority 2023, published 2026)

Test system: moderate-to-severe chronic spontaneous urticaria (CSU)
Assay: Phase 2 CSU study: itch severity score over 7 days (ISS7)
Assay type: in vivo, human
Conditions: for Change from Baseline in ISS7 at Week 12, Mean / Change from Baseline in ISS7 at Week 12, LS Mean / Change from Baseline in ISS7 at Week 12, LS Mean Diff vs. placebo: Omalizumab-naïve population; for ISS7 change from baseline at Week 12, LS Mean / ISS7 change from baseline at Week 12, LS Mean Diff vs. placebo: ANCOVA
Source text: The study comprises a 12 week, randomized, double-blind, placebo-controlled, multi-center, dose-ranging efficacy and safety phase, followed by a 40 week open label extension (OLE) phase (see FIG. 1). The study consists of three phases and an optional OLE phase. […] Clinically, CSU is characterized by the spontaneous and recurrent appearance of pruritic hives. The proposed primary endpoints were the UAS7 at Week 12 in EU and EU reference countries and the ISS7 in the US. Regardless of where a participant was from, all assessments were the same. The UAS7 score is a composite score containing both the HSS7 and the ISS7. This allowed a global assessment of the two key components of urticaria: hives and itch. […] The UAS is a validated PRO measure. […] The daily UAS scores range from 0 to 6 point/day. […] Patients were to complete the UAS using the e-diary. […] The following secondary endpoints were to be analyzed using the same approach as for the primary endpoint: • Change from baseline in UAS7 at Week 4 • Change from baseline in UAS7 at Week 12 (for US and US reference countries) • Change from baseline in ISS7 at Week 12 (except US and US reference countries) • Change from baseline in HSS7 at Week 12

[1] = 400 mg TID, Baseline ISS7 score <13
[2] = 400 mg TID, Baseline ISS7 score ≥13
[3] = 400 mg TID, Baseline Total IgE (IU/mL) <100
[4] = 400 mg TID, Baseline Total IgE (IU/mL) <300
[5] = 400 mg TID, Baseline Total IgE (IU/mL) ≥100
[6] = 400 mg TID, Baseline Total IgE (IU/mL) ≥300
[7] = 400 mg TID, Baseline UAS7 score <28
[8] = 400 mg TID, Baseline UAS7 score ≥28
[9] = 400 mg TID, Duration of disease (years) 2-10
[10] = 400 mg TID, Duration of disease (years) <2
[11] = 400 mg TID, Duration of disease (years) >10
[12] = 400 mg TID, Ethnicity Non-Hispanic
[13] = 400 mg TID, History of angioedema No
[14] = 400 mg TID, History of angioedema Yes
[15] = 400 mg TID, Race All the Others
[16] = 400 mg TID, Region Eastern Europe
[17] = 400 mg TID, Region Latin America
[18] = 400 mg TID, Region Western Countries
[19] = 400 mg TID, omalizumab-naïve population
[20] = 400 mg TID, omalizumab-naïve population with outlier removed
[21] = End of Study, 400 mg BID, Omalizumab-Naïve

CC(C)(C=C(C#N)C(=O)N1CCC[C@@H](n2nc(-c3ccc(Oc4ccccc4)cc3F)c3c(N)ncnc32)C1)N1CCN(C2COC2)CC1 [rilzabrutinib, (R)-2-[3-[4-amino-3-(2-fluoro-4-phenoxy-phenyl)pyrazolo[3,4-d]pyrimidin-1-yl]piperidine-1-carbonyl]-4-methyl-4-[4-(oxetan-3-yl)piperazin-1-yl]pent-2-enenitrile]
Change from Baseline in ISS7 at Week 12, Mean (400 mg TID, Baseline H1-antihistamines dose 2 to 4-fold standard dose): −12.76
Change from Baseline in ISS7 at Week 12, LS Mean [1]: −3.73
Change from Baseline in ISS7 at Week 12, LS Mean Diff vs. placebo [1]: −1.01
Change from Baseline in ISS7 at Week 12, Mean [1]: −3.50
Change from Baseline in ISS7 at Week 12, LS Mean [2]: −10.18
Change from Baseline in ISS7 at Week 12, LS Mean Diff vs. placebo [2]: −4.45
Change from Baseline in ISS7 at Week 12, Mean [2]: −10.79
Change from Baseline in ISS7 at Week 12, LS Mean [3]: −9.19
Change from Baseline in ISS7 at Week 12, LS Mean Diff vs. placebo [3]: −4.95
Change from Baseline in ISS7 at Week 12, Mean [3]: −11.17
Change from Baseline in ISS7 at Week 12, LS Mean [4]: −9.55
Change from Baseline in ISS7 at Week 12, LS Mean Diff vs. placebo [4]: 5.04
Change from Baseline in ISS7 at Week 12, LS Mean [5]: −9.13
Change from Baseline in ISS7 at Week 12, LS Mean Diff vs. placebo [5]: −3.10
Change from Baseline in ISS7 at Week 12, Mean [5]: −9.49
Change from Baseline in ISS7 at Week 12, LS Mean [6]: −8.12
Change from Baseline in ISS7 at Week 12, LS Mean Diff vs. placebo [6]: −1.58
Change from Baseline in ISS7 at Week 12, Mean [6]: 8.74
Change from Baseline in ISS7 at Week 12, LS Mean [7]: −6.43
Change from Baseline in ISS7 at Week 12, LS Mean Diff vs. placebo [7]: −3.26
Change from Baseline in ISS7 at Week 12, Mean [7]: −7.61
Change from Baseline in ISS7 at Week 12, LS Mean [8]: −10.62
Change from Baseline in ISS7 at Week 12, LS Mean Diff vs. placebo [8]: −4.02
Change from Baseline in ISS7 at Week 12, Mean [8]: −11.99
Change from Baseline in ISS7 at Week 12, LS Mean [9]: −8.84
Change from Baseline in ISS7 at Week 12, LS Mean Diff vs. placebo [9]: −1.82
Change from Baseline in ISS7 at Week 12, Mean [9]: −9.37
Change from Baseline in ISS7 at Week 12, LS Mean [10]: −9.77
Change from Baseline in ISS7 at Week 12, LS Mean Diff vs. placebo [10]: −6.12
Change from Baseline in ISS7 at Week 12, Mean [10]: −10.93
Change from Baseline in ISS7 at Week 12, LS Mean [11]: −9.33
Change from Baseline in ISS7 at Week 12, LS Mean Diff vs. placebo [11]: −5.64
Change from Baseline in ISS7 at Week 12, Mean [11]: −11.00
Change from Baseline in ISS7 at Week 12, LS Mean (400 mg TID, Ethnicity Hispanic): 7.36
Change from Baseline in ISS7 at Week 12, LS Mean Diff vs. placebo (400 mg TID, Ethnicity Hispanic): −0.35
Change from Baseline in ISS7 at Week 12, Mean (400 mg TID, Ethnicity Hispanic): −8.13
Change from Baseline in ISS7 at Week 12, LS Mean [12]: −10.16
Change from Baseline in ISS7 at Week 12, LS Mean Diff vs. placebo [12]: −5.69
Change from Baseline in ISS7 at Week 12, Mean [12]: −11.83
Change from Baseline in ISS7 at Week 12, Mean (400 mg TID, Gender Male): −7.08
Change from Baseline in ISS7 at Week 12, LS Mean [13]: −9.56
Change from Baseline in ISS7 at Week 12, LS Mean Diff vs. placebo [13]: −4.22
Change from Baseline in ISS7 at Week 12, Mean [13]: −10.86
Change from Baseline in ISS7 at Week 12, LS Mean [14]: −8.24
Change from Baseline in ISS7 at Week 12, LS Mean Diff vs. placebo [14]: −2.99
Change from Baseline in ISS7 at Week 12, Mean [14]: −9.01
ISS7 at Week 12, Mean (400 mg TID, ITT population): 5.59
ISS7 at Week 12, Median (400 mg TID, ITT population): 6.00
ISS7 change from baseline at Week 12, Mean (400 mg TID, ITT population): −10.68
ISS7 change from baseline at Week 12, Median (400 mg TID, ITT population): −10.67
LS mean change from baseline in ISS7 at Week 12 (400 mg TID, ITT population): −9.58 points
ISS7 change from baseline at Week 12, LS Mean (400 mg TID, ITT population): −9.58 points
ISS7 change from baseline at Week 12, LS Mean Diff vs. placebo (400 mg TID, ITT population): −3.26
decrease from baseline in ISS7 (400 mg TID, ITT population, belongs to LS mean change −6.65): 40.41%
LS mean change in ISS7 from baseline (see Table 29) (400 mg TID, ITT population, following one week of treatment): −6.65 points
Change from Baseline in ISS7 at Week 12, LS Mean [15]: −8.74
Change from Baseline in ISS7 at Week 12, LS Mean Diff vs. placebo [15]: −5.27
Change from Baseline in ISS7 at Week 12, Mean [15]: −8.74
Change from Baseline in ISS7 at Week 12, LS Mean (400 mg TID, Race White): −9.18
Change from Baseline in ISS7 at Week 12, LS Mean Diff vs. placebo (400 mg TID, Race White): −3.17
Change from Baseline in ISS7 at Week 12, Mean (400 mg TID, Race White): −10.88
Change from Baseline in ISS7 at Week 12, LS Mean (400 mg TID, Region Asia): −8.33
Change from Baseline in ISS7 at Week 12, LS Mean Diff vs. placebo (400 mg TID, Region Asia): −4.87
Change from Baseline in ISS7 at Week 12, Mean (400 mg TID, Region Asia): −8.21
Change from Baseline in ISS7 at Week 12, LS Mean [16]: −14.02
Change from Baseline in ISS7 at Week 12, LS Mean Diff vs. placebo [16]: −1.35
Change from Baseline in ISS7 at Week 12, Mean [16]: −13.17
Change from Baseline in ISS7 at Week 12, LS Mean [17]: −6.07
Change from Baseline in ISS7 at Week 12, LS Mean Diff vs. placebo [17]: 0.52
Change from Baseline in ISS7 at Week 12, Mean [17]: −7.34
Change from Baseline in ISS7 at Week 12, LS Mean [18]: 9.58
Change from Baseline in ISS7 at Week 12, LS Mean Diff vs. placebo [18]: −5.03
Change from Baseline in ISS7 at Week 12, Mean [18]: −11.79
ISS7 at Week 12, Mean [19]: 5.77
ISS7 at Week 12, Median [19]: 7.00
ISS7 change from baseline at Week 12, Mean [19]: −10.27
ISS7 change from baseline at Week 12, Median [19]: −10.33
LS mean change from baseline in ISS7 at Week 12 [19]: −9.21
LS mean reduction in ISS7 (see Table 30) [19]: −6.13
ISS7 at Week 12, Mean [20]: 5.77
ISS7 at Week 12, Median [20]: 7.00
ISS7 change from baseline at Week 12, Mean [20]: −10.27
ISS7 change from baseline at Week 12, Median [20]: −10.33
ISS7 change from baseline at Week 12, LS Mean [20]: −9.57 points
ISS7 change from baseline at Week 12, LS Mean Diff vs. placebo [20]: −3.86
LS mean change from baseline in ISS7 at Week 12 (400 mg TID, omalizumab-naïve population, outlier removed): −9.57
ISS7 change from baseline at Week 12, LS Mean [19]: −9.21 points
ISS7 change from baseline at Week 12, LS Mean Diff vs. placebo [19]: −3.44
ISS7 Mean (SD) [21]: 7.80 (8.76)
ISS7 Median [21]: 7.00
ISS7 Mean (SD) (End of Study, 400 mg QPM, Omalizumab-Naïve): 5.74 (8.03)
